In PubChem BioAssay (NCI):
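48-hour exposure; five concentrations; linearly interpolated endpoints. Definition used: TGI = concentration required for complete inhibition of growth.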

Key:
Assay in all cases: growth of human tumour cells (NCI), 48 h
[1] = test system: UACC-257 melanoma
[2] = test system: SNB-19 CNS
[3] = test system: SK-MEL-2 melanoma
[4] = test system: HCT-15 colon
[5] = test system: KM12 colon
[6] = test system: SK-MEL-5 melanoma
[7] = test system: CCRF-CEM leukemia
[8] = test system: OVCAR-4 ovarian
[9] = test system: NCI-H226 lung
[10] = test system: HCC-2998 colon
[11] = test system: K-562 leukemia
[12] = test system: HOP-62 NSCLC
[13] = test system: SW-620 colon
[14] = test system: NCI-H23 lung
[15] = test system: BT-549 breast
[16] = test system: RPMI-8226 leukemia
[17] = test system: NCI-H460 lung
[18] = test system: NCI-H522 lung
[19] = test system: U251 CNS
[20] = test system: MOLT-4 leukemia
[21] = test system: TK-10 renal
[22] = test system: DU-145 prostate
[23] = test system: CAKI-1 renal
[24] = test system: M14 melanoma
[25] = test system: MALME-3M melanoma
[26] = test system: PC-3 prostate
[27] = test system: SF-268 CNS
[28] = test system: SK-OV-3 ovarian
[29] = test system: MDA-MB-435
[30] = test system: RXF 393 renal
[31] = test system: SF-295 CNS
[32] = test system: ACHN renal
[33] = test system: MDA-MB-231 breast
[34] = test system: OVCAR-8 ovarian
[35] = test system: IGROV1 ovarian
[36] = test system: HCT-116 colon
[37] = test system: SK-MEL-28 melanoma
[38] = test system: SNB-75 CNS
[39] = test system: UO-31 renal
[40] = test system: COLO 205 colon
[41] = test system: EKVX NSCLC
[42] = test system: MDA-N
[43] = test system: OVCAR-5 ovarian
[44] = test system: OVCAR-3 ovarian
[45] = test system: HS 578T breast
[46] = test system: NCI/ADR-RES ovarian
[47] = test system: SN12C renal
[48] = test system: A549 NSCLC
[49] = test system: HT29 colon
[50] = test system: T-47D breast
[51] = test system: UACC-62 melanoma
[52] = test system: MCF7 breast
[53] = test system: 786-0 renal
[54] = test system: SF-539 CNS
[55] = test system: A498 renal
[56] = test system: SR leukemia
[57] = test system: HOP-92 NSCLC
[58] = test system: LOX IMVI melanoma

Question: Which results are given for CC1CC(=O)Nc2ccc(N=NN(C)C)cc2N1C=O (configuration not stated)?
Answer: TGI [1]: > 100 µM; TGI [2]: > 100 µM; TGI [3]: > 100 µM; TGI [4]: > 100 µM; TGI [5]: > 100 µM; TGI [6]: > 100 µM; TGI [7]: > 100 µM; TGI [8]: > 100 µM; TGI [9]: > 100 µM; TGI [10]: > 100 µM; TGI [11]: > 100 µM; TGI [12]: > 100 µM; TGI [13]: > 100 µM; TGI [14]: > 100 µM; TGI [15]: > 100 µM; TGI [16]: > 100 µM; TGI [17]: > 100 µM; TGI [18]: > 100 µM; TGI [19]: > 100 µM; TGI [20]: > 100 µM; TGI [21]: > 100 µM; TGI [22]: > 100 µM; TGI [23]: > 100 µM; TGI [24]: > 100 µM; TGI [25]: > 100 µM; TGI [26]: > 100 µM; TGI [27]: > 100 µM; TGI [28]: > 100 µM; TGI [29]: > 100 µM; TGI [30]: > 100 µM; TGI [31]: > 100 µM; TGI [32]: > 100 µM; TGI [33]: > 100 µM; TGI [34]: > 100 µM; TGI [35]: > 100 µM; TGI [36]: > 100 µM; TGI [37]: > 100 µM; TGI [38]: > 100 µM; TGI [39]: > 100 µM; TGI [40]: > 100 µM; TGI [41]: > 100 µM; TGI [42]: > 100 µM; TGI [43]: > 100 µM; TGI [44]: > 100 µM; TGI [45]: > 100 µM; TGI [46]: > 100 µM; TGI [47]: > 100 µM; TGI [48]: > 100 µM; TGI [49]: > 100 µM; TGI [50]: > 100 µM; TGI [51]: > 100 µM; TGI [52]: > 100 µM; TGI [53]: > 100 µM

Question: Which results are given for COc1cc2c(cc1OC(=O)c1cc3ccccc3[nH]1)N=C[C@@H]1CCCN1C2=O?
Answer: TGI [1]: 0.691 µM; TGI [2]: 3.04 µM; TGI [3]: 0.55 µM; TGI [4]: > 34.2 µM; TGI [5]: 3.15 µM; TGI [6]: 0.335 µM; TGI [7]: 1.95 µM; TGI [8]: 2.15 µM; TGI [9]: 5.97 µM; TGI [10]: 1.12 µM; TGI [11]: 2.83 µM; TGI [54]: 1170 nM; TGI [12]: 4.36 µM; TGI [13]: 10.4 µM; TGI [15]: 5.37 µM; TGI [16]: 1.95 µM; TGI [17]: 8.65 µM; TGI [18]: 1.19 µM; TGI [55]: 599 nM; TGI [19]: 3.52 µM; TGI [20]: 0.553 µM; TGI [21]: 13.8 µM; TGI [22]: 11.7 µM; TGI [23]: 13.8 µM; TGI [24]: 0.387 µM; TGI [25]: 2.24 µM; TGI [26]: 6.93 µM; TGI [27]: > 22.2 µM; TGI [28]: 15.2 µM; TGI [29]: 1.19 µM; TGI [30]: 0.36 µM; TGI [56]: 969 nM; TGI [31]: 4.48 µM; TGI [32]: 13 µM; TGI [33]: 2.88 µM; TGI [35]: > 39.6 µM; TGI [36]: 3.19 µM; TGI [37]: 2.21 µM; TGI [38]: 7.02 µM; TGI [40]: 0.405 µM; TGI [41]: 3.2 µM; TGI [42]: 0.375 µM; TGI [43]: 0.59 µM; TGI [44]: 0.818 µM; TGI [45]: > 100 µM; TGI [46]: > 100 µM; TGI [47]: 0.513 µM; TGI [48]: 12 µM; TGI [49]: 0.36 µM; TGI [50]: 6.25 µM; TGI [51]: 0.707 µM; TGI [52]: 13 µM; TGI [57]: > 100 µM; TGI [53]: 4.23 µM

Question: What does the source list for CCOC(=O)C1C[C@H]2CO[C@H](c3ccccc3)N2C1=O (some centres not stated)?
Answer: TGI [1]: > 100 µM; TGI [2]: > 100 µM; TGI [3]: > 100 µM; TGI [4]: > 100 µM; TGI [5]: > 100 µM; TGI [6]: > 100 µM; TGI [7]: > 100 µM; TGI [8]: > 100 µM; TGI [9]: > 100 µM; TGI [10]: > 100 µM; TGI [11]: > 100 µM; TGI [54]: > 100000 nM; TGI [13]: > 100 µM; TGI [14]: > 100 µM; TGI [15]: > 100 µM; TGI [16]: > 100 µM; TGI [17]: > 100 µM; TGI [18]: > 100 µM; TGI [19]: > 100 µM; TGI [20]: > 100 µM; TGI [21]: > 100 µM; TGI [22]: > 100 µM; TGI [23]: > 100 µM; TGI [24]: > 100 µM; TGI [25]: > 100 µM; TGI [26]: > 100 µM; TGI [27]: > 100 µM; TGI [29]: > 100 µM; TGI [30]: > 100 µM; TGI [56]: > 100000 nM; TGI [31]: > 100 µM; TGI [32]: > 100 µM; TGI [33]: > 100 µM; TGI [34]: > 100 µM; TGI [35]: > 100 µM; TGI [36]: > 100 µM; TGI [37]: > 100 µM; TGI [38]: > 100 µM; TGI [39]: > 100 µM; TGI [40]: > 100 µM; TGI [41]: > 100 µM; TGI [42]: > 100 µM; TGI [43]: > 100 µM; TGI [44]: > 100 µM; TGI [45]: > 100 µM; TGI [46]: > 100 µM; TGI [47]: > 100 µM; TGI [48]: > 100 µM; TGI [49]: > 100 µM; TGI [50]: > 100 µM; TGI [51]: > 100 µM; TGI [52]: > 100 µM; TGI [57]: > 100 µM; TGI [58]: > 100 µM; TGI [53]: > 100 µM
